Columns and labels:
MCF7 = test: Growth inhibition of human MCF7 cells assessed as cell growth at 10 uM after 48 hrs by sulforhodamine B assay; format: functional; conditions: MCF7, 48 h, read-out: Activity
UO-31 = test: Growth inhibition of human UO31 cells assessed as cell growth at 10 uM after 48 hrs by sulforhodamine B assay; format: functional; conditions: UO-31, 48 h, read-out: Activity
SW-620 [1] = test: Growth inhibition of human SW620 cells after 48 hrs by sulforhodamine B assay; format: functional; conditions: SW-620, 48 h
HCT-15 = test: Growth inhibition of human HCT15 cells after 48 hrs by sulforhodamine B assay; format: functional; conditions: HCT-15, 48 h
[2] = Growth inhibition of human HCC2998 cells after 48 hrs by sulforhodamine B assay; format: functional; conditions: HCC 2998, 48 h
NCI-H460 = test: Growth inhibition of human NCI-H460 cells after 48 hrs by sulforhodamine B assay; format: functional; conditions: NCI-H460, 48 h
HOP-92 [3] = test: Growth inhibition of human HOP92 cells after 48 hrs by sulforhodamine B assay; format: functional, cell-based; conditions: HOP-92, 48 h
A549 = test: Growth inhibition of human A549/ATCC cells after 48 hrs by sulforhodamine B assay; format: functional; conditions: A549, 48 h
RPMI-8226 = test: Growth inhibition of human RPMI8226 cells after 48 hrs by sulforhodamine B assay; format: functional, cell-based; conditions: RPMI-8226, 48 h
K562 = test: Growth inhibition of human K562 cells after 48 hrs by sulforhodamine B assay; format: functional; conditions: K562, 48 h
ACHN = test: Growth inhibition of human ACHN cells assessed as cell growth at 10 uM after 48 hrs by sulforhodamine B assay; format: functional; conditions: read-out: Activity
SK-OV-3 = test: Growth inhibition of human SKOV3 cells assessed as cell growth at 10 uM after 48 hrs by sulforhodamine B assay; format: functional; conditions: SK-OV-3, 48 h, read-out: Activity
[4] = Growth inhibition of human NCI-ADR-RES cells assessed as cell growth at 10 uM after 48 hrs by sulforhodamine B assay; format: functional; conditions: read-out: Activity
OVCAR-4 = test: Growth inhibition of human OVCAR4 cells assessed as cell growth at 10 uM after 48 hrs by sulforhodamine B assay; format: functional; conditions: OVCAR-4, 48 h, read-out: Activity
OVCAR-3 [5] = test: Growth inhibition of human OVCAR3 cells assessed as cell growth at 10 uM after 48 hrs by sulforhodamine B assay; format: functional; conditions: OVCAR-3, 48 h, read-out: Activity
UACC-62 = test: Growth inhibition of human UACC62 cells assessed as cell growth at 10 uM after 48 hrs by sulforhodamine B assay; format: functional; conditions: UACC-62, 48 h, read-out: Activity
IGROV-1 = test: Growth inhibition of human IGROV1 cells assessed as cell growth at 10 uM after 48 hrs by sulforhodamine B assay; format: functional; conditions: IGROV-1, 48 h, read-out: Activity
SK-MEL-28 = test: Growth inhibition of human SK-MEL-28 cells assessed as cell growth at 10 uM after 48 hrs by sulforhodamine B assay; format: functional; conditions: SK-MEL-28, 48 h, read-out: Activity
SNB-19 = test: Growth inhibition of human SNB19 cells assessed as cell growth at 10 uM after 48 hrs by sulforhodamine B assay; format: functional; conditions: SNB-19, 48 h, read-out: Activity
SF-539 = test: Growth inhibition of human SF539 cells assessed as cell growth at 10 uM after 48 hrs by sulforhodamine B assay; format: functional; conditions: SF-539, 48 h, read-out: Activity
SW-620 [6] = test: Growth inhibition of human SW620 cells assessed as cell growth at 10 uM after 48 hrs by sulforhodamine B assay; format: functional; conditions: SW-620, 48 h, read-out: Activity
NCI-H522 = test: Growth inhibition of human NCI-H522 cells assessed as cell growth at 10 uM after 48 hrs by sulforhodamine B assay; format: functional; conditions: NCI-H522, 48 h, read-out: Activity
HOP-92 [7] = test: Growth inhibition of human HOP92 cells assessed as cell growth at 10 uM after 48 hrs by sulforhodamine B assay; format: functional; conditions: HOP-92, 48 h, read-out: Activity
T47D = test: Growth inhibition of human T47D cells after 48 hrs by sulforhodamine B assay; format: functional
[8] = Growth inhibition of human Hs 578T cells after 48 hrs by sulforhodamine B assay; format: functional
MDA-MB-231 = test: Growth inhibition of human MDA-MB-231 cells after 48 hrs by sulforhodamine B assay; format: functional; conditions: MDA-MB-231, 48 h
TK-10 = test: Growth inhibition of human TK10 cells after 48 hrs by sulforhodamine B assay; format: functional; conditions: TK-10, 48 h
CAKI-1 = test: Growth inhibition of human CAKI-1 cells after 48 hrs by sulforhodamine B assay; format: functional; conditions: CAKI-1, 48 h
A498 = test: Growth inhibition of human A498 cells after 48 hrs by sulforhodamine B assay; format: functional, cell-based; conditions: A498, 48 h
[9] = Growth inhibition of human NCI-ADR-RES cells after 48 hrs by sulforhodamine B assay; format: functional
OVCAR-3 [10] = test: Growth inhibition of human OVCAR3 cells after 48 hrs by sulforhodamine B assay; format: functional, cell-based; conditions: OVCAR-3, 48 h
Malme-3M = test: Growth inhibition of human MALME-3M cells after 48 hrs by sulforhodamine B assay; format: functional
SNB-75 = test: Growth inhibition of human SNB75 cells after 48 hrs by sulforhodamine B assay; format: functional; conditions: SNB-75, 48 h
HL-60(TB) = test: Growth inhibition of human HL-60(TB) cells assessed as cell growth at 10 uM after 48 hrs by sulforhodamine B assay; format: functional; conditions: HL-60, 48 h, read-out: Activity
[11] = read-out: LC50 (the source's name)

Structure (SMILES): COc1cc(-c2nn(-c3cccc(NC(=O)Nc4ccc(Cl)c(C(F)(F)F)c4)c3)cc2-c2ccncc2)ccc1Cl
- growth at 10 µM (MCF7): 0.14%
- growth at 10 µM (UO-31): 11%
- GI50 (SW-620 [1]): 1290 nM
- TGI (SW-620 [1]): 29.9 µM
- CC50 (SW-620 [1]; [11]): > 32.5 µM
- GI50 (HCT-15): 1230 nM
- LC50 (HCT-15): > 32.5 µM
- TGI (HCT-15): 7.05 µM
- GI50 [2]: 1550 nM
- TGI [2]: 7.3 µM
- CC50 [2, 11]: > 32.5 µM
- GI50 (NCI-H460): 1110 nM
- LC50 (NCI-H460): > 32.5 µM
- TGI (NCI-H460): 4.79 µM
- GI50 (HOP-92 [3]): 499 nM
- IC50 (HOP-92 [3]): 500 nM
- LC50 (HOP-92 [3]): > 32.5 µM
- TGI (HOP-92 [3]): 1480 nM
- GI50 (A549): 1020 nM
- LC50 (concentration killing 50% of starting cells) (A549): > 32.5 µM
- TGI (A549): 16.7 µM
- GI50 (RPMI-8226): 868 nM
- IC50 (RPMI-8226): 870 nM
- TGI (RPMI-8226): 3.25 µM
- CC50 (RPMI-8226; [11]): > 32.5 µM
- GI50 (K562): 1210 nM
- TGI (K562): > 32.5 µM
- CC50 (K562; [11]): > 32.5 µM
- growth at 10 µM (ACHN): 9.33%
- growth at 10 µM (SK-OV-3): 0.43%
- growth at 10 µM [4]: -0.86%
- growth at 10 µM (OVCAR-4): 20.8%
- growth at 10 µM (OVCAR-3 [5]): -12.4%
- growth at 10 µM (UACC-62): -43.8%
- growth at 10 µM (IGROV-1): 25.6%
- growth at 10 µM (SK-MEL-28): 8.8%
- growth at 10 µM (SNB-19): 26.4%
- growth at 10 µM (SF-539): 6.56%
- growth at 10 µM (SW-620 [6]): 15.4%
- growth at 10 µM (NCI-H522): -13.9%
- growth at 10 µM (HOP-92 [7]): -37.5%
- GI50 (T47D): 1230 nM
- TGI (T47D): > 32.5 µM
- CC50 (T47D; [11]): > 32.5 µM
- GI50 [8]: 1320 nM
- TGI [8]: 18.3 µM
- CC50 [8, 11]: > 32.5 µM
- GI50 (MDA-MB-231): 760 nM
- LC50 (MDA-MB-231): 13.3 µM
- TGI (MDA-MB-231): 2600 nM
- GI50 (TK-10): 1520 nM
- TGI (TK-10): 13.5 µM
- CC50 (TK-10; [11]): > 32.5 µM
- GI50 (CAKI-1): 992 nM
- TGI (CAKI-1): 4.72 µM
- CC50 (CAKI-1; [11]): > 32.5 µM
- GI50 (A498): 837 nM
- IC50 (A498): 840 nM
- TGI (A498): 6.97 µM
- CC50 (A498; [11]): > 32.5 µM
- GI50 [9]: 1040 nM
- TGI [9]: 7.99 µM
- CC50 [9, 11]: > 32.5 µM
- GI50 (OVCAR-3 [10]): 889 nM
- IC50 (OVCAR-3 [10]): 890 nM
- TGI (OVCAR-3 [10]): 2440 nM
- CC50 (OVCAR-3 [10]; [11]): > 32.5 µM
- GI50 (Malme-3M): 838 nM
- LC50 (concentration killing 50% of starting cells) (Malme-3M): > 32.5 µM
- TGI (Malme-3M): 2350 nM
- GI50 (SNB-75): 1280 nM
- LC50 (lethal concentration, 50% net cell kill) (SNB-75): > 32.5 µM
- TGI (SNB-75): 10.3 µM
- growth at 10 µM (HL-60(TB)): -19.8%

Source: ChEMBL document CHEMBL2440076, “New triarylpyrazoles as broad-spectrum anticancer agents: design, synthesis, and biological evaluation” (Eur J Med Chem, 2013)
